Values quoted from earlier work in publication PMC6311893, “Computational prediction of plasma protein binding of cyclic peptides from small molecule experimental data using sparse modeling techniques” (BMC Bioinformatics, 2018).

system: plasma protein; conditions: cited from earlier work

| Compound | PPB (fb) |
| --- | --- |
| COc1cc(C)c(/C=C/C(C)=C/C=C/C(C)=C/C(=O)O)c(C)c1C [acitretin] | 0.99 |

same assay, conditions: fraction bound to plasma protein; small molecule dataset, sheet 1-SM (Set Dte = test, Dtr = training); ref Ingle et al.; cited from earlier work

| Compound | PPB (fb) |
| --- | --- |
| O=C(O)Cc1ccccc1Nc1c(Cl)cccc1Cl [Diclofenac] | 0.995 |
| N[C@@H](C(=O)N[C@@H]1C(=O)N2C(C(=O)O)=C(Cl)CS[C@H]12)c1ccccc1 [cefaclor] | 0.25 |
| NS(=O)(=O)c1cc2c(cc1Cl)N=CNS2(=O)=O [chlorothiazide] | 0.7 |
| O=C(O)c1cn(-c2ccccc2C(F)(F)F)c2cc(N3CCNCC3)c(F)cc2c1=O [3a(o-CF3)] | 0.38 |
| COc1ccc2[nH]c([S+]([O-])Cc3ncc(C)c(OC)c3C)nc2c1 (centres unmarked) [Omeprazole] | 0.96 |
| COCC1=C(C(=O)OC(C)OC(=O)OC(C)C)N2C(=O)[C@@H](NC(=O)/C(=N\OC)c3csc(N)n3)[C@H]2SC1 (some centres unmarked) [cefpodoxime proxetil] | 0.29 |
| CC(=O)OCC(=O)[C@@]12N=C(C)O[C@@H]1C[C@H]1[C@@H]3CCC4=CC(=O)C=C[C@]4(C)[C@H]3[C@@H](O)C[C@@]12C [deflazacort] | 0.4 |
| [H]/N=C(\N/C(=N/[H])Nc1ccc(Cl)cc1)NC(C)C [chlorguanide] | 0.85 |
| CCOC(=O)NC1=C(N2CC2)C(=O)C(NC(=O)OCC)=C(N2CC2)C1=O [diaziquone] | 0.79 |
| Cn1c(=O)c2c(ncn2CCCNCC(O)c2cc(O)cc(O)c2)n(C)c1=O (centres unmarked) [reproterol] | 0.5 |
| CC(C)(C#N)c1cc(Cn2cncn2)cc(C(C)(C)C#N)c1 [anastrozole] | 0.44 |
| CC(C)(C)c1ccc(C(=O)CCCN2CCC(OC(c3ccccc3)c3ccccc3)CC2)cc1 [ebastine] | 0.98 |
| NCC[C@H](O)C(=O)N[C@@H]1C[C@H](N)[C@@H](O[C@H]2O[C@H](CN)CC[C@H]2N)[C@H](O)[C@H]1O[C@H]1O[C@H](CO)[C@@H](O)[C@H](N)[C@H]1O [arbekacin] | 0.08 |
| O=P(O)(O)C(Cl)(Cl)P(=O)(O)O [clodronic acid] | 0.36 |
| Cc1cn([C@H]2C[C@H](N=[N+]=[N-])[C@@H](CO)O2)c(=O)[nH]c1=O [Zidovudine] | 0.28 |
| CN(C)CCC=C1c2ccccc2C=Cc2ccccc21 [cyclobenzaprine] | 0.93 |
| C[C@@H](O)[C@H]1C(=O)N2C(C(=O)O)=C(S[C@H]3C[C@@H](C(=O)N4CC[C@H](NC(=O)CNC(=N)N)C4)N(C)C3)[C@H](C)[C@H]12 [Tomopenem] | 0.09 |
| O=C(O)c1cn(-c2ccc(O)cc2)c2cc(N3CCNCC3)c(F)cc2c1=O [8c(p-OH)] | 0.35 |
| CCOc1nc2cccc(C(=O)OC(C)OC(=O)OC3CCCCC3)c2n1Cc1ccc(-c2ccccc2-c2nnn[nH]2)cc1 (centres unmarked) [Candesartan cilexetil] | 0.99 |
| CCCN1CCN(c2cc3c(cc2F)c(=O)c(C(=O)O)cn3-c2ccc(OC)cc2)CC1 [5cc (p-OCH3__ N- C3H7] | 0.54 |
| C=C[C@H]1C[N@@]2CC[C@H]1C[C@@H]2[C@@H](O)c1ccnc2ccc(OC)cc12 [Quinidine] | 0.74 |
| Cc1ncc([N+](=O)[O-])n1CCO [Metronidazole] | 0.07 |
| CC(=O)[C@H]1CC[C@H]2[C@@H]3CCC4=CC(=O)CC[C@]4(C)[C@H]3CC[C@]12C [progesterone] | 0.97 |

same assay, conditions: fraction bound to plasma protein; small molecule dataset, sheet 1-SM, Set Dtr; ref Ingle et al.; cited from earlier work

| Compound | PPB (fb) |
| --- | --- |
| C/C=C/C1=C(C(=O)O)N2C(=O)C(NC(=O)C(N)c3ccc(O)cc3)C2SC1 (centres unmarked) [Cefprozil] | 0.38 |
| CN(C)CCCN1c2ccccc2CCc2cc(O)ccc21 [Hydroxyimipramine__ 2-] | 0.64 |
| CC(=O)Nc1nnc(S(N)(=O)=O)s1 [Acetazolamide] | 0.92 |
| Cc1cccc(C)c1NC(=O)c1cc(S(N)(=O)=O)c(Cl)cc1O [xipamide] | 0.99 |
| CN(CCOc1ccc(NS(C)(=O)=O)cc1)CCc1ccc(NS(C)(=O)=O)cc1 [Dofetilide] | 0.64 |
| C[C@@H]1C[C@H]2[C@@H]3CCC4=CC(=O)C=C[C@]4(C)[C@@]3(F)[C@@H](O)C[C@]2(C)[C@@]1(O)C(=O)CO [Dexamethasone] | 0.68 |
| Cc1ccnc2c1NC(=O)c1cccnc1N2C1CC1 [Nevirapine] | 0.64 |
| CC1=C(C/C=C(\C)CCCC(C)CCCC(C)CCCC(C)C)C(=O)c2ccccc2C1=O (centres unmarked) [vitamin-K] | 0.9 |
| Nc1nc(F)nc2c1ncn2[C@@H]1O[C@H](CO)[C@@H](O)[C@@H]1O [Fludarabine] | 0.12 |
| CN1C(=O)OC(C)(C)C1=O [trimethadione] | 0 |
| C[C@H](CCC(=O)O)[C@H]1CC[C@H]2[C@@H]3[C@@H](O)C[C@@H]4C[C@H](O)CC[C@]4(C)[C@H]3CC[C@]12C [ursodiol] | 0.97 |
| Cc1ccc(/C(=C\CN2CCCC2)c2ccccn2)cc1 [triprolidine] | 0.9 |
| CN1CC[C@H](c2c(O)cc(O)c3c(=O)cc(-c4ccccc4Cl)oc23)[C@H](O)C1 [Flavopiridol] | 0.94 |
| O=C1CN(/N=C/c2ccc([N+](=O)[O-])o2)C(=O)N1 [Nitrofurantoin] | 0.73 |
| Cc1[nH]cnc1CN1CCc2c(c3ccccc3n2C)C1=O [Alosetron] | 0.72 |
| CC1(C)S[C@@H]2[C@H](NC(=O)[C@H](NC(=O)N3CCNC3=O)c3ccccc3)C(=O)N2[C@H]1C(=O)O [Azlocillin] | 0.32 |
| COc1nc(C)nc(Cl)c1N=C1NCCN1 [Moxonidine] | 0.06 |
| C[C@@H]1CC(=O)NN=C1c1ccc(NN=C(C#N)C#N)cc1 [Levosimendan] | 0.98 |
| CO/N=C(\C(=O)N[C@@H]1C(=O)N2C(C(=O)O)=C(COC(N)=O)CS[C@H]12)c1ccco1 [Cefuroxime] | 0.32 |
| CCCn1c(=O)[nH]c(=O)c2[nH]cnc21 [Enprofylline] | 0.45 |

same assay, conditions: fraction bound to plasma protein; small molecule dataset, sheet 1-SM; ref Ingle et al.; cited from earlier work

| Compound | PPB (fb) |
| --- | --- |
| CC(C)Cc1ccc(C(C)C(=O)NCCOCCO)cc1 (centres unmarked) [JMC_08] | 0.83 |
| OC[C@H]1O[C@@H](n2cnc3c2NC=NC[C@H]3O)C[C@@H]1O [pentostatin] | 0.03 |
| CS(=O)(=O)c1ccc(C2=C(c3ccccc3)C(=O)OC2)cc1 [rofecoxib] | 0.87 |
| CN1CCc2c(c3ccccc3n2Cc2ccccc2)C1 [mebhydrolin] | 0.04 |
| CCOc1ccccc1OCCN[C@H](C)Cc1ccc(OC)c(S(N)(=O)=O)c1 [Tamsulosin] | 0.97 |
| CCCN1CCCC[C@H]1C(=O)Nc1c(C)cccc1C [Ropivacaine] | 0.94 |
| COc1ccc(CCN(C)CCCC(C#N)(c2cc(OC)c(OC)c(OC)c2)C(C)C)cc1OC (centres unmarked) [gallopamil] | 0.9 |
| Cc1ncc(CO)c(CO)c1O [pyridoxine] | 0 |
| CCCc1nc(C(C)(C)O)c(C(=O)O)n1Cc1ccc(-c2ccccc2-c2nnn[nH]2)cc1 [Olmesartan] | 0.99 |
| CN(C)CC/C=C1\c2ccccc2CSc2ccccc21 [dothiepin] | 0.85 |
| O=C(O)c1ccccc1O [salicylate] | 0.85 |
| CC(NCCC(c1ccccc1)c1ccccc1)c1ccccc1 (centres unmarked) [fendiline] | 0.95 |
| CN1C(=O)CC(C)(c2ccccc2)C1=O (centres unmarked) [mesuximide] | 0 |
| CC1OC(OC2CC(O)(C(C)O)Cc3c(O)c4c(c(O)c32)C(=O)c2ccccc2C4=O)CC(N)C1O (centres unmarked) [Idarubicinol] | 0.94 |
| CCCN1C[C@H](CSC)C[C@@H]2c3cccc4[nH]cc(c34)C[C@H]21 [pergolide] | 0.9 |
| CSc1ccc2c(c1)N(CCC1CCCCN1C)c1ccccc1S2 (centres unmarked) [thioridazine] | 0.98 |
| COC(CC(=O)NC1C(=O)N2C1SC(C)(C)C2C(=O)O)c1cccs1 (centres unmarked) [penicillin73] | 0.59 |
| O=C(O)C(=O)O [oxalic acid] | 0 |
| COC(C(=O)NC1C(=O)N2C1SC(C)(C)C2C(=O)O)c1cccc([N+](=O)[O-])c1 (centres unmarked) [penicillin46] | 0.6 |
| CC(C)(S)[C@@H](N)C(=O)O [penicillamine] | 0.8 |
| COCCOc1c(OC)cc(Cc2cnc(N)nc2N)cc1OC [tetroxoprim] | 0.15 |
| CCn1cc(C(=O)O)c(=O)c2ccc(C)nc21 [nalidixic acid] | 0.94 |
| CCC(Cc1c(I)cc(I)c(N)c1I)C(=O)O (centres unmarked) [iopanoic acid] | 0.79 |
| CC1(C)SC2C(NC(=O)C(NC(=O)c3ccc(S(N)(=O)=O)cc3)c3ccccc3)C(=O)N2C1C(=O)O (centres unmarked) [penicillin35] | 0.42 |

same assay, conditions: plasma; cited from earlier work

| Compound | PPB (fb) |
| --- | --- |
| C[C@@H]1O[C@@H](O[C@@H]2C=C3CC[C@@H]4[C@H](CC[C@]5(C)[C@@H](c6ccc(=O)oc6)CC[C@]45O)[C@@]3(C)CC2)[C@H](O)[C@H](O)[C@H]1O [proscillaridin] | 0.85 |
| CC(=O)NCCCS(=O)(=O)O [acamprosate] | 0.03 |
| N[C@@H](Cc1ccc(N(CCCl)CCCl)cc1)C(=O)O [Melphalan] | 0.88 |
| CC1(C)C[C@@H]1C(=O)N/C(=C\CCCCSC[C@H](N)C(=O)O)C(=O)O [Cilastatin] | 0.37 |
| COC(=O)[C@H]1[C@@H](OC(=O)c2ccccc2)C[C@@H]2CC[C@H]1N2C [Cocaine] | 0.89 |
| c1ccc(C2(N3CCCCC3)CCCCC2)cc1 [Phencyclidine] | 0.68 |
| O=[N+]([O-])O[C@H]1CO[C@H]2[C@@H]1OC[C@H]2O[N+](=O)[O-] [Isosorbide Dinitrate] | 0.29 |
| CC(=O)[C@H]1CC[C@H]2[C@@H]3CC[C@@H]4C[C@H](O)CC[C@]4(C)[C@H]3CC[C@]12C [Eltanolone] | 0.99 |
| nilvadipine | 0.99 |
| CC[C@@H](CO)NC(=O)[C@@H]1C=C2c3cccc4[nH]cc(c34)C[C@H]2N(C)C1 [methylergonovine] | 0.35 |
| CCCCCCCC(=O)NC1C(=O)N2C1SC(C)(C)C2C(=O)O (centres unmarked) [penicillin3] | 0.92 |
| Cc1cccc(N2CC(CO)OC2=O)c1 (centres unmarked) [Toloxatone] | 0.5 |
| CC(=O)Oc1ccc2c3c1OC1C(OC(C)=O)C=CC4C(C2)N(C)CCC341 (centres unmarked) [diamorphine] | 0 |
| Cc1nnc2n1-c1ccc(Cl)cc1C(c1ccccc1)=NC2 [Alprazolam] | 0.72 |
| Oxytetracycline | 0.2 |
